Experimental data as given in ChEMBL document CHEMBL1201862, “PubChem BioAssay data set” (2004).
Calls of active or inactive are those of the source.

What was measured:
Beta-galactosidase = Beta-galactosidase (Escherichia coli, UniProt Q8VNN2); assay: Dose response counterscreen for EBI2 assay utilizing the enzyme, b-galactosidase.; type: functional
[1] = biological target: T1, Adenosylmethionine-8-amino-7-oxononanoate aminotransferase (Mycobacterium tuberculosis, UniProt P9WQ81); assay: Mycobacterium tuberculosis BioA enzyme inhibitor Measured in Biochemical System Using Plate Reader - 2163-02_Inhibitor_Dose_CherryPick_Activity.; type: functional, Mycobacterium tuberculosis UT205
T1 sequence (P9WQ81 whole entry): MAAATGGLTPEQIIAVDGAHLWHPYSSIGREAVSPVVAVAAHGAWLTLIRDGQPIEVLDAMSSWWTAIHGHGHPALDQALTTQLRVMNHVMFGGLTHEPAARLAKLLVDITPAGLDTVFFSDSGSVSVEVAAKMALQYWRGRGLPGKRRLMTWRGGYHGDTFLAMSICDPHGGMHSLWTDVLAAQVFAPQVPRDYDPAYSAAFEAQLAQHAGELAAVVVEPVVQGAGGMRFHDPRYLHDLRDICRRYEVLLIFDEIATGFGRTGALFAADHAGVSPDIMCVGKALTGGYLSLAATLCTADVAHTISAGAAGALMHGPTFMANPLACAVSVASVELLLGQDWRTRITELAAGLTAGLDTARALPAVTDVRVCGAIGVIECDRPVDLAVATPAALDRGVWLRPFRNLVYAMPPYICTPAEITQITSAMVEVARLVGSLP

[2] = biological target: Peroxisome proliferator-activated receptor gamma/Nuclear receptor coactivator 2 (Homo sapiens, UniProt P37231); type: functional;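 note: agonist potency for raising coactivator recruitment to the receptor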
[3] = biological target: Peroxisome proliferator-activated receptor gamma/Nuclear receptor coactivator 1 (Homo sapiens, UniProt P37231); type: functional;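 note: agonist potency as compounds enhance coactivator SRC-1 recruitment to PPARgamma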
[4] = biological target: Peroxisome proliferator-activated receptor gamma/Nuclear receptor coactivator 3 (Homo sapiens, UniProt P37231); type: functional;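 note: agonist potency for raising coactivator recruitment to the receptor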
Peroxisome proliferator-activated receptor gamma/Nuclear receptor coactivator 3, sequence (P37231 whole entry): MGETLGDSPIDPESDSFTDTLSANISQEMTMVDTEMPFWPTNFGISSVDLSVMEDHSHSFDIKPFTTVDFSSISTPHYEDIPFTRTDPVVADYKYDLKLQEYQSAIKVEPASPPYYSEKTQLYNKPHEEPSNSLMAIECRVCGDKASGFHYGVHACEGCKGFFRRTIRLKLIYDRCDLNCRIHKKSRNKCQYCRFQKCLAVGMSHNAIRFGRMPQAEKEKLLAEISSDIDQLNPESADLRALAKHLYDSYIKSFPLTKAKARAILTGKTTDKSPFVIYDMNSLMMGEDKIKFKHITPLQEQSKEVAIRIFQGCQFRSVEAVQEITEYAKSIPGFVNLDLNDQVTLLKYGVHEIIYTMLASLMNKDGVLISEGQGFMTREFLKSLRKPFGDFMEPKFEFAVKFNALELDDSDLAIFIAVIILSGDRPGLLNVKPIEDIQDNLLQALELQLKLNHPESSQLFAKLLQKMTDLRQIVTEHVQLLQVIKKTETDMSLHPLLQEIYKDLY
Peroxisome proliferator-activated receptor gamma/Nuclear receptor coactivator 3, sequence (Q9Y6Q9 whole entry, further chain): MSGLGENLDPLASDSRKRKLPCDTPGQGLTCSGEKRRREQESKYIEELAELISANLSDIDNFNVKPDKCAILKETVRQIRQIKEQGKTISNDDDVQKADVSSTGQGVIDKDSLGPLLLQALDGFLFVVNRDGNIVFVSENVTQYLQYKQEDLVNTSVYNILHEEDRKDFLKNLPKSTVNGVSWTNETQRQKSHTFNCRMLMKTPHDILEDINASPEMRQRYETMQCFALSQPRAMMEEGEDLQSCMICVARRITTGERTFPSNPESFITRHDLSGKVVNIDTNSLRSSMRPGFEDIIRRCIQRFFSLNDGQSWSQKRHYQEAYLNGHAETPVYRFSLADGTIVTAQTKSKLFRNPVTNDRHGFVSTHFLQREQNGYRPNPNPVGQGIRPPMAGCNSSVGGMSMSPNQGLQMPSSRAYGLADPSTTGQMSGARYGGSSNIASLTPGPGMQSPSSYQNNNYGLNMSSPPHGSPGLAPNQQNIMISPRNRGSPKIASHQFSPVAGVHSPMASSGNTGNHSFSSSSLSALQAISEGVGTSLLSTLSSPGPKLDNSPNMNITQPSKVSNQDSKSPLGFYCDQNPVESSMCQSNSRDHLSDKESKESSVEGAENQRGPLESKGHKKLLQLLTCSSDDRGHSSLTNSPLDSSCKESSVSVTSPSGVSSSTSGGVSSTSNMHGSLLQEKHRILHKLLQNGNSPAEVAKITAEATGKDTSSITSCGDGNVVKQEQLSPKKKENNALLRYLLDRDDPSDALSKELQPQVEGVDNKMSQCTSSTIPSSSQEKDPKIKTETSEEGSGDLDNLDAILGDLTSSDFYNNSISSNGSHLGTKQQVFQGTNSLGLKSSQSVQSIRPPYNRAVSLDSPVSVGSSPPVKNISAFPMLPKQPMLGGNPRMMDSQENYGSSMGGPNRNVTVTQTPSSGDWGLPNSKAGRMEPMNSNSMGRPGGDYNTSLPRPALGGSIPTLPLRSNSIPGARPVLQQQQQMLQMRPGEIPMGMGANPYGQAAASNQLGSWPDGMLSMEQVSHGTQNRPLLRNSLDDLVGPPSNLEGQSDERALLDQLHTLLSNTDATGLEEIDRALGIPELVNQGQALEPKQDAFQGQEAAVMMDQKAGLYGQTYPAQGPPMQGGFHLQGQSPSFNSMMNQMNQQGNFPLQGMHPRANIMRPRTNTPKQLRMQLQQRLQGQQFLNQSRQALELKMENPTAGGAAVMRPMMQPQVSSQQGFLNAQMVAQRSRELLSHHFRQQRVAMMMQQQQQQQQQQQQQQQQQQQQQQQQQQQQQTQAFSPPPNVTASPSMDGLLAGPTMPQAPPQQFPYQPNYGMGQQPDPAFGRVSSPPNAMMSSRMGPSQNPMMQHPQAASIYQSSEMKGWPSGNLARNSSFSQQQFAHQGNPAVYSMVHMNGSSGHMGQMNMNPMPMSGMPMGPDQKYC

Large T antigen = Large T antigen (Simian virus 40, UniProt P03070); type: functional, Betapolyomavirus macacae;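 note: Confirmatory-stage PubChem screen for compounds that inhibit SV40 T antigen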
Large T antigen, sequence (P03070 whole entry): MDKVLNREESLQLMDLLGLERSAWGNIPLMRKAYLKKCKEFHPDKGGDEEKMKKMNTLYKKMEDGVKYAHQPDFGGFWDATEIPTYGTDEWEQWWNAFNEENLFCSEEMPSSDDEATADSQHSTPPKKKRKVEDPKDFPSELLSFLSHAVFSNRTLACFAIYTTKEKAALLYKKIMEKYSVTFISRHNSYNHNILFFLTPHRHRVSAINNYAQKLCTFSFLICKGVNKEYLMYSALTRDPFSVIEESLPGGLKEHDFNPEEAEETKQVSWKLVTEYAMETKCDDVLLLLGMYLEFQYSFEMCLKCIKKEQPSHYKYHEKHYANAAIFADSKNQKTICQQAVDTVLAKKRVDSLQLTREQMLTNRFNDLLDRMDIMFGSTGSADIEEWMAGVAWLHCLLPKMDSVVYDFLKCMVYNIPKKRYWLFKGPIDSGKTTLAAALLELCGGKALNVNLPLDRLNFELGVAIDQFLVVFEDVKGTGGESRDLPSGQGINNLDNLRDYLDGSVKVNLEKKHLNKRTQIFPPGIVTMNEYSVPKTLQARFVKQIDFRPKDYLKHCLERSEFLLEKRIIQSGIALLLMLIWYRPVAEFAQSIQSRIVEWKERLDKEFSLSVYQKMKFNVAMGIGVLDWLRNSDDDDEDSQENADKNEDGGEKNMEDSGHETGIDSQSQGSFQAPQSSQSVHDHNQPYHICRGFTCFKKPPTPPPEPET

[5] = biological target: T2, Rac GTPase-activating protein 1 (Homo sapiens, UniProt Q9H0H5); assay: blockers of MgcRacGAP-driven Rac1 GTP hydrolysis – biochemical, ADP Hunter fluorescence, primary and confirmatory, confirmation (AID 624330); type: functional
T2 sequence (Q9H0H5 whole entry): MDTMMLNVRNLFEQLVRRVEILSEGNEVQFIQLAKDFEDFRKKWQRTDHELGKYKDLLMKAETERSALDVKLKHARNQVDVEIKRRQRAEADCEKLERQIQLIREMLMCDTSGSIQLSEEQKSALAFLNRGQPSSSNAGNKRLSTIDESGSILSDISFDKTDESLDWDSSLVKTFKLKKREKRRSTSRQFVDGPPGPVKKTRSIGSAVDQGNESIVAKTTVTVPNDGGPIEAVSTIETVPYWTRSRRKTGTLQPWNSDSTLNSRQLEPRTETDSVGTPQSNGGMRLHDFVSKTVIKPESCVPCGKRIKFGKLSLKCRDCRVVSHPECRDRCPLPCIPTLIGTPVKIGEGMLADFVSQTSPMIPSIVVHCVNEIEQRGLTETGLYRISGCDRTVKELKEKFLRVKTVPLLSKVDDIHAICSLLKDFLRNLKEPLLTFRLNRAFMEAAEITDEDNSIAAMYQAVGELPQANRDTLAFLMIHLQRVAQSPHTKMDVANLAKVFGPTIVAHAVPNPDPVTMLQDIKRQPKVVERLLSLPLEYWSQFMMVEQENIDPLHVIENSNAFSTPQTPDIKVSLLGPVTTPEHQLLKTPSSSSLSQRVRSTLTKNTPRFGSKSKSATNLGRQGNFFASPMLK

Cytochrome P450 2C9 = Cytochrome P450 2C9 (Homo sapiens, UniProt P11712)
Cytochrome P450 2C9, sequence (P11712 whole entry): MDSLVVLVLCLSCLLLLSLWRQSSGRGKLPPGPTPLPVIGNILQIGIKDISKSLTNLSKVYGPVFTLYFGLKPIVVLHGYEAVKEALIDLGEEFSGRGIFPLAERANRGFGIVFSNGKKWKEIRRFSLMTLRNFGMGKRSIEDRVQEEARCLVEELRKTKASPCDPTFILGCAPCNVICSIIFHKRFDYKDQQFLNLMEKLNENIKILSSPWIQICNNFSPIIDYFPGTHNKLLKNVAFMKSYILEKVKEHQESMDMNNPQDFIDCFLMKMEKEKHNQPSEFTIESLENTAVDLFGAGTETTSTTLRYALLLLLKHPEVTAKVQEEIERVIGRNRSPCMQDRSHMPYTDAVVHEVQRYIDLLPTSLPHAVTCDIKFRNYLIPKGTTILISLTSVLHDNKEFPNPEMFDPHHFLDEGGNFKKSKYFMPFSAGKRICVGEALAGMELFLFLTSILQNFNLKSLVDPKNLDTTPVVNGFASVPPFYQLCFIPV

cells [6] = type: functional, cell-based
cells [7] = type: functional, cell-based; remark: listed apart in the source
Paired box protein Pax-8 = Paired box protein Pax-8 (Homo sapiens, UniProt Q06710); assay: PAX8 transcriptional activity inhibition in RMG-I – RMG-I cells, luciferase, cherry-pick, dose response (AID 687027); type: functional, cell-based;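 note: luciferase reporter driven by Pax8 target thyroperoxidase promoter measured by SteadyGlo luminescence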
Paired box protein Pax-8, sequence (Q06710 whole entry): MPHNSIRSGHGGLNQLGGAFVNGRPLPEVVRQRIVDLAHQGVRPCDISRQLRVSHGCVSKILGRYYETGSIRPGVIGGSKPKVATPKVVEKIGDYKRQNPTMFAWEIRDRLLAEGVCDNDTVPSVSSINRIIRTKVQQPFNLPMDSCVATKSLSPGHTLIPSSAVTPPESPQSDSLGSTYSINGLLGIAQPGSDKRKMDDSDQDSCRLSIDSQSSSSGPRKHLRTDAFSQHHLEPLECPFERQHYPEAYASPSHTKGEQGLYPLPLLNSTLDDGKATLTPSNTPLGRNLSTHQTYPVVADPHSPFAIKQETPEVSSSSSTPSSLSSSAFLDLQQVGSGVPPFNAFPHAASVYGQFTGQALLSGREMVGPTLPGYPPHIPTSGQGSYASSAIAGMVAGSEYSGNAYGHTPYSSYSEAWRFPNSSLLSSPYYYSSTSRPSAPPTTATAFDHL

[8] = A2780 cell killing – plate reader, dry powder samples, cytotoxicity control, dose response (AID 743046); type: functional, cell-based
[9] = OVCAR-3 cell viability loss – plate reader, dry powder samples, PAX8 inhibitor project, dose response (AID 743044); type: functional, cell-based
[10] = IGROV1 cell killing – plate reader, dry powder samples, PAX8 inhibitor project, dose response (AID 743043); type: functional, cell-based; settings: IGROV-1
[11] = OVCAR8 cell viability loss – plate reader, dry powder samples, PAX8 project, dose response (AID 743197); type: functional, cell-based; settings: OVCAR-8
[12] = biological target: Induced myeloid leukemia cell differentiation protein Mcl-1 (Homo sapiens, UniProt Q07820); type: functional
Induced myeloid leukemia cell differentiation protein Mcl-1, sequence (Q07820 whole entry, the tested form may be a part): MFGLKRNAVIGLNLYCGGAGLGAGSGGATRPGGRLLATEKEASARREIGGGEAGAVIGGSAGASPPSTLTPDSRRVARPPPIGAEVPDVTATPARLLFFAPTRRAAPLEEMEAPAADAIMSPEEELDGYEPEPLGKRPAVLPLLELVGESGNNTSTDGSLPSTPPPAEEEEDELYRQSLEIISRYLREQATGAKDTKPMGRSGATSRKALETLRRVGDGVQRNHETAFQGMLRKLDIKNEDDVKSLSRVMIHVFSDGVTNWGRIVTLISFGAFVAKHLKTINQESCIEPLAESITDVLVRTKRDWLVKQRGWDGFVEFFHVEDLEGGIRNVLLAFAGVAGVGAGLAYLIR

[13] = biological target: T3, Carboxy-terminal domain RNA polymerase II polypeptide A small phosphatase 1 (Homo sapiens, UniProt Q9GZU7); assay: CTDSP1 inhibitors, concentration-response, biochemical, absorbance readout, ultra-high-throughput screen actives (AID 540297); type: functional
T3 sequence (Q9GZU7 whole entry): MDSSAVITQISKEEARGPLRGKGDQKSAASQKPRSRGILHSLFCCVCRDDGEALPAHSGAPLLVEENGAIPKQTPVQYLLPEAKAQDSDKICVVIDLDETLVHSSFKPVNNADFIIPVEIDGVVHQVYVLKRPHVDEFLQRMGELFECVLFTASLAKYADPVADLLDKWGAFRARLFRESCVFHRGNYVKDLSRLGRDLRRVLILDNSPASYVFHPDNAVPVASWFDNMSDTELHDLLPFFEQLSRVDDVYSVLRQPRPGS

Beta-galactosidase, sequence (Q8VNN2 whole entry): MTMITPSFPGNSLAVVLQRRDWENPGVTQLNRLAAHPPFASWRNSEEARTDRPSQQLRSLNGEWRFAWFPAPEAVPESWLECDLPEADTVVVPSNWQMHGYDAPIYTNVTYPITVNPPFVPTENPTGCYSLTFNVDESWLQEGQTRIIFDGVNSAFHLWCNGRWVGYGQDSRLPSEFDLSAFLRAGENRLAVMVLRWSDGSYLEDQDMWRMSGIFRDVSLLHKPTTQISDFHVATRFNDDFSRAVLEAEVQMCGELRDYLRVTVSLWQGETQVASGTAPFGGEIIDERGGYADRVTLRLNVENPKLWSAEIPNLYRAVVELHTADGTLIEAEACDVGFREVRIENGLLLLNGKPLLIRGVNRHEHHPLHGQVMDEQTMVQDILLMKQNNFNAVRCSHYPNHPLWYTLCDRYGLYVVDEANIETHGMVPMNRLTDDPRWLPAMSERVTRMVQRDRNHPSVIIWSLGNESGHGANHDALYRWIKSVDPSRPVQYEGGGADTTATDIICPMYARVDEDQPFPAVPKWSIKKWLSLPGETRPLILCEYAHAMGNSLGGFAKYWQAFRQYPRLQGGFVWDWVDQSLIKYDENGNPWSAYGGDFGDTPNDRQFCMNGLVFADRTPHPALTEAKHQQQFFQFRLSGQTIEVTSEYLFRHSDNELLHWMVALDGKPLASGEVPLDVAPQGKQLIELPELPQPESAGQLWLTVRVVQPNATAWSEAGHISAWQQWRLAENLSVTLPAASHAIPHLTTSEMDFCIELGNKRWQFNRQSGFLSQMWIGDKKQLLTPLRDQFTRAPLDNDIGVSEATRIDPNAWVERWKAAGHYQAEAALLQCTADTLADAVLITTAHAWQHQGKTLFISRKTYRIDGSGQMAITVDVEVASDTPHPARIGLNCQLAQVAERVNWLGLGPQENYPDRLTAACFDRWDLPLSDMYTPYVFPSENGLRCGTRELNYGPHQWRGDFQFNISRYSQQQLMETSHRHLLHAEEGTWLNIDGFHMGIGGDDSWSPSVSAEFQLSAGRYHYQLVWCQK

With `COC(=O)c1ccc(/N=c2\sc(C(=O)OC)cc(=O)n2C)cc1` the IC50 (Beta-galactosidase) was > 80 µM (inactive).

With `COC(=O)c1c(C(=O)OC)c(-c2cccc(F)c2)n2c1C[S+]([O-])C2` (stereo not given) the AC50 [1] was 0.659 µM (active).

With `O=C(/C=C/c1ccc(Cl)cc1)N1CCN(CCN2C(=O)c3cccc4cccc(c34)C2=O)CC1` the IC50 (Beta-galactosidase) was > 80 µM (inactive).

With `O=C(N/N=C/c1ccc(O)cc1)c1csc2ccccc12` the EC50 [2] was > 79.4 µM (not active), the EC50 [3] was > 79.4 µM (not active) and the EC50 [4] was > 79.4 µM (not active). For the same molecule, the IC50 (Large T antigen) was 13.3 µM (active), the IC50 [5] was 42.3 µM (active) and the AC50 (Cytochrome P450 2C9) was “inconclusive”.

For `COc1ccc(-c2nc3ccc(Cl)cn3c2Cc2ccccc2)cc1OC`, the AC50 [1] was 10.6 µM (active).

In the case of `CCOC(=O)[C@]12CCC=C1N(CCC1=CCCCC1)C(=O)[C@H](CC(=O)NCCc1ccccc1OC)C2`, the IC50 (cells [6]) is reported as > 29.9 µM (inactive) and the EC50 (cells [7]) is reported as > 29.9 µM (inactive).

With `C[C@@H]1CCCCO[C@@H](CN(C)S(=O)(=O)c2ccc(Cl)cc2)[C@H](C)CN([C@H](C)CO)C(=O)c2cc(NS(=O)(=O)c3ccc(Cl)cc3)ccc2O1` the AC50 (Paired box protein Pax-8) was 3.27 µM (active), the AC50 [8] was 55.8 µM (active) and the AC50 [9] was 17.7 µM (active). The AC50 [10] was 21.7 µM (active) and the AC50 [11] was 19.5 µM (active).

With `C[C@@H]1CN([C@H](C)CO)C(=O)c2cc(NS(=O)(=O)c3cccs3)ccc2O[C@@H](C)CCCCO[C@@H]1CN(C)Cc1ccc(Cl)c(Cl)c1` the AC50 (Paired box protein Pax-8) was 4.91 µM (active), the AC50 [8] was 27.8 µM (active) and the AC50 [9] was 16.9 µM (active). For the same molecule, the AC50 [10] was 26.5 µM (active) and the AC50 [11] was 20.5 µM (active).

With `COc1ccc(/C=N/N=C/c2cnc(O)c(C#N)c2Nc2ccccc2)cc1` the IC50 (Beta-galactosidase) was > 80 µM (inactive).

With `NC(=S)n1[nH]c(-c2ccc([N+](=O)[O-])cc2)c(/N=N/c2ccccc2[N+](=O)[O-])c1=O` the IC50 [12] was 23.2 µM (active) and the IC50 [13] was 1.46 µM (active).
